One test has as its target T1, human mGluR2 receptor (Homo sapiens, UniProt Q14416).
T1 construct: expressed in transfected cells; host or cells: CHO cells
Kind of test: [35S]GTPγS binding assay (PAM assay) using membranes from cells transfected with the human mGluR2 receptor. Type of test: biochemical. The conditions noted are these: membranes of CHO cells with human mGluR2; glutamate at predetermined EC25 concentration; averages of duplicate values of 11-concentration response curves. On the procedure:
The [^35S]GTPγS binding assay is a functional membrane-based assay used to study G-protein coupled receptor (GPCR) function whereby incorporation of a non-hydrolysable form of GTP, [^35S]GTPγS (guanosine 5′-triphosphate, labelled with […] ^35S), is measured.
CHO-cells were cultured to pre-confluence and stimulated with 5 mM butyrate for 24 hours, prior to washing in PBS, and then collection by scraping in homogenisation buffer (50 mM Tris-HCl buffer, pH 7.4, 4° C.). Cell lysates were homogenized briefly (15 s) using an ultra-turrax homogenizer. The homogenate was centrifuged at 23 500×g for 10 minutes and the supernatant discarded. The pellet was resuspended in 5 mM Tris-HCl, pH 7.4 and centrifuged again (30 000×g, 20 min, 4° C.). The final pellet was resuspended in 50 mM HEPES, pH 7.4 and stored at −80° C. in appropriate aliquots before use. Protein concentration was determined by the Bradford method (Bio-Rad, USA) with bovine serum albumin as standard.
Measurement of mGluR2 positive allosteric modulatory activity of test compounds in membranes containing human mGluR2 was performed using frozen membranes that were thawed and briefly homogenised prior to pre-incubation in 96-well microplates (15 μg/assay well, 30 minutes, 30° C.) in assay buffer (50 mM HEPES pH 7.4, 100 mM NaCl, 3 mM MgCl2, 50 μM GDP, 10 μg/ml saponin,) with increasing concentrations of positive allosteric modulator (from 0.3 nM to 50 μM) and either a minimal pre-determined concentration of glutamate (PAM assay), or no added glutamate. […] After addition of [^35S]GTPγS (0.1 nM, f.c.) to achieve a total reaction volume of 200 μl, microplates were shaken briefly and further incubated to allow [^35S]GTPγS incorporation on activation (30 minutes, 30° C.). The reaction was stopped by rapid vacuum filtration over glass-fibre filter plates (Unifilter 96-well GF/B filter plates, Perkin-Elmer, Downers Grove, USA) microplate using a 96-well plate cell harvester (Filtermate, Perkin-Elmer, USA), and then by washing three times with 300 μl of ice-cold wash buffer (Na2PO4.2H2O 10 mM, NaH2PO4.H2O 10 mM, pH=7.4). Filters were then air-dried, and 40 μl of liquid scintillation cocktail (Microscint-O) was added to each well, and membrane-bound [^35S]GTPγS was measured in a 96-well scintillation plate reader (Top-Count, Perkin-Elmer, USA). Non-specific [^35S]GTPγS binding is determined in the presence of cold 10 μM GTP. Each curve was performed at least once using duplicate sample per data point and at 11 concentrations.
The concentration-response curves of representative compounds of the present invention in the presence of added EC25 of mGluR2 agonist glutamate to determine positive allosteric modulation (PAM), were generated using the Prism GraphPad software (Graph Pad Inc, San Diego, USA). The curves were fitted to a four-parameter logistic equation (Y=Bottom+(Top-Bottom)/(1+10^((Log EC50−X)*Hill Slope) allowing determination of EC50 values. The EC50 is the concentration of a compound that causes a half-maximal potentiation of the glutamate response. This is calculated by subtracting the maximal responses of glutamate in presence of a fully saturating concentration of a positive allosteric modulator from the response of glutamate in absence of a positive allosteric modulator. The concentration producing the half-maximal effect is then calculated as EC50
On the technique in general: Binding of GTPγS marks nucleotide exchange on a G protein.
T1 sequence (Q14416 19-872): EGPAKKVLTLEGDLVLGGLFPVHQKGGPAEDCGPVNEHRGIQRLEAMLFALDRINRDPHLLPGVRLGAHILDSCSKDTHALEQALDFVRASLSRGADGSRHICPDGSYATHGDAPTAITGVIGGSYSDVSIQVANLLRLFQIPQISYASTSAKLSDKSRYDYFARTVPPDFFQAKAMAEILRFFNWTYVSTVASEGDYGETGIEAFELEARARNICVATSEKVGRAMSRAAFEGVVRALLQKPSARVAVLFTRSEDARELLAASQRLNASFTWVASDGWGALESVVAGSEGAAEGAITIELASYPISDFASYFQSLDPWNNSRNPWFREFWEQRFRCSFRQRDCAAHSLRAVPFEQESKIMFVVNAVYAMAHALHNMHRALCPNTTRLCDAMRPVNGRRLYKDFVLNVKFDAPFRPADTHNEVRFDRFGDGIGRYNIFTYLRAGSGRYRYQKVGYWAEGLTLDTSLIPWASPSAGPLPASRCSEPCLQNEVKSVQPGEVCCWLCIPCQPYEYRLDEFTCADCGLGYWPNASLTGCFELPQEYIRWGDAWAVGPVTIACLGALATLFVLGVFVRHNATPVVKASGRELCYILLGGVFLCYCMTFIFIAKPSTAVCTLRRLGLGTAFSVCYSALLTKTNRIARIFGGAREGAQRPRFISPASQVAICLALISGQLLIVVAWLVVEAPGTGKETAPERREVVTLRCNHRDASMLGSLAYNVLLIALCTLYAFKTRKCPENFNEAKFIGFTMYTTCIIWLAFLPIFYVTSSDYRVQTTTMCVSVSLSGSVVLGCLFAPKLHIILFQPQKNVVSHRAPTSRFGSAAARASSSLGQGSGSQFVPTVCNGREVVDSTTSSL
Turning to `N#Cc1c(-c2ccc(N3CCCCC3)cc2)ccn2c(CC(F)(F)F)cnc12` [Example 107], the “GTPγS - hR2 PAM pEC50” value turned out to be 6.63.

Take `CC(C)(C)c1ccc(-c2ccn3c(CC(F)(F)F)cnc3c2C#N)cc1` [Example 88]: the “GTPγS - hR2 PAM pEC50” value was determined as 6.35.

With `N#Cc1c(-c2ccc(N3CCOCC3)c(Cl)c2)ccn2c(CC(F)(F)F)cnc12` [Example 110], the “GTPγS - hR2 PAM pEC50” value turned out to be 5.67.

For the molecule `N#Cc1c(-c2ccc(OCc3ccccc3)cc2)ccn2c(CC(F)(F)F)cnc12` [Example 120], the “GTPγS - hR2 PAM pEC50” value came to 6.80.

Regarding `N#Cc1c(N2CCN(c3ncccn3)CC2)ccn2c(CCC3CC3)cnc12` [Example 55], the “GTPγS - hR2 PAM pEC50” value stood at 5.96.

Take `N#Cc1c(-c2ccc(NC3CC3)c(Cl)c2)ccn2c(CC(F)(F)F)cnc12` [Example 105, 7-(3-Chloro-4-cyclopropylamino-phenyl)-3-(2,2,2-trifluoro-ethyl)-imidazo[1,2-a]pyridine-8-carbonitrile]: the “GTPγS - hR2 PAM pEC50” value turned out to be 6.85.

The test is the same for the next values; noted with them: membranes of CHO cells with human mGluR2; glutamate at predetermined EC25 concentration; averages of duplicate values of 11-concentration response curves; read-out: GTPγS - hR2 PAM pEC50 (converted).
As to `N#Cc1c(-c2ccc(COc3ccccc3F)cc2)ccn2c(CC(F)(F)F)cnc12` [Example 113], the EC50 is 155 nM.

Consider `CC(O)c1ccc(C2CCN(c3ccn4c(CC(F)(F)F)cnc4c3C#N)CC2)cc1` (centres unmarked) [Example 59], for which the EC50 is 372 nM.

Turning to `N#Cc1c(N2CCC(c3ccccc3)CC2)ccn2c(-c3ccccc3)cnc12` [Example 10], the EC50 was 398 nM.

As for `COc1c(F)cccc1C1CCN(c2ccn3c(CC(F)(F)F)cnc3c2C#N)CC1` [Example 61, 7-[4-(3-Fluoro-2-methoxy-phenyl)-piperidin-1-yl]-3-(2,2,2-trifluoro-ethyl)-imidazo[1,2-a]pyridine-8-carbonitrile], the EC50 is 37.2 nM.

For the molecule `N#Cc1c(N2CCC(c3ccccc3)CC2)ccn2c(CC(F)(F)F)cnc12` [Example 3, 7-(4-Phenyl-piperidin-1-yl)-3-(2,2,2-trifluoro-ethyl)-imidazo[1,2-a]pyridine-8-carbonitrile], the EC50 was 123 nM.

For `N#Cc1c(-c2ccc(N3CCCC3)c(Cl)c2)ccn2c(CC(F)(F)F)cnc12` [Example 108], the EC50 is 457 nM.

Consider `N#Cc1c(CN2CCC(c3ccccc3)CC2)ccn2c(-c3ccccc3)cnc12` [Example 1, 3-Phenyl-7-(4-phenyl-piperidin-1-ylmethyl)-imidazo[1,2-a]pyridine-8-carbonitrile], for which the EC50 is 513 nM.

Take `N#Cc1c(N2CCC(c3ccccc3)CC2)ccn2c(C(F)(F)F)cnc12` [Example 29, 7-(4-Phenyl-piperidin-1-yl)-3-trifluoromethyl-imidazo[1,2-a]pyridine-8-carbonitrile]: the EC50 is 776 nM.

Turning to `Cc1cc(Oc2ccc(-c3ccn4c(CC(F)(F)F)cnc4c3C#N)c(F)c2)ccn1` [Example 4, 7-[2-Fluoro-4-(2-methyl-pyridin-4-yloxy)-phenyl]-3-(2,2,2-trifluoro-ethyl)-imidazo[1,2-a]pyridine-8-carbonitrile], the EC50 was 692 nM.

For the molecule `Cc1cc(Oc2ccc(-c3ccn4c(CC(F)(F)F)cnc4c3C#N)cc2F)ccn1` [Example 17], the EC50 is 1120 nM.

In the case of `Cc1cccnc1N1CCN(c2ccn3c(CC(F)(F)F)cnc3c2C#N)CC1` [Example 53], the EC50 was 1350 nM.

Take `N#Cc1c(-c2ccc(C(F)(F)c3ccccc3)cc2)ccn2c(CC(F)(F)F)cnc12` [Example 72]: the EC50 is 214 nM.

As to `Cc1cc(Oc2ccc(-c3ccn4c(CC(F)(F)F)cnc4c3C#N)cc2)ccn1` [Example 13], the EC50 was 589 nM.

Regarding `FC(F)(F)Cc1cnc2c(Cl)c(CN3CCC(c4ccccc4)CC3)ccn12` [Example 42], the EC50 was 562 nM.

`Cc1ccnc(N2CCN(c3ccn4c(CC(F)(F)F)cnc4c3C#N)CC2)n1` [Example 60]: the EC50 is 525 nM.

As to `N#Cc1c(N2CCN(c3ccc(F)cc3F)CC2)ccn2c(CC(F)(F)F)cnc12` [Example 52], the EC50 is 275 nM.

Consider `FC(F)(F)Cc1cnc2c(Cl)c(N3CCC4(CC3)CN(c3ccccc3)C4)ccn12` [Example 125], for which the EC50 is 1780 nM.

Consider `N#Cc1c(-c2ccc(OC3CCCC3)c(Cl)c2)ccn2c(CC(F)(F)F)cnc12` [Example 84], for which the EC50 is 302 nM.

With `CCc1cnc2c(C#N)c(-c3ccc(Oc4ccnc(C)c4)cc3)ccn12` [Example 18], the EC50 was 1320 nM.

With `CC(C)Oc1ccc(-c2ccn3c(CC(F)(F)F)cnc3c2C#N)cc1Cl` [Example 87], the EC50 was 309 nM.

Regarding `N#Cc1c(N2CCC(c3ccccc3)CC2)ccn2c(Cc3ccccc3)cnc12` [Example 7], the EC50 is 178 nM.

As for `CC1(O)CCC(Nc2ccc(-c3ccn4c(CC(F)(F)F)cnc4c3Cl)cc2Cl)CC1` (centres unmarked) [Example 98, 4-{2-Chloro-4-[8-chloro-3-(2,2,2-trifluoro-ethyl)-imidazo[1,2-a]pyridin-7-yl]-phenylamino}-1-methyl-cyclohexanol], the EC50 was 490 nM.

In the case of `N#Cc1c(N2CCC(c3cccc(F)c3OCCF)CC2)ccn2c(CC(F)(F)F)cnc12` [Example 119], the EC50 is 57.5 nM.

Turning to `N#Cc1c(-c2ccc(Oc3ccc(C(=O)O)cc3)cc2)ccn2c(CC(F)(F)F)cnc12` [Example 83], the EC50 was 676 nM.

For `N#Cc1c(-c2ccc(Oc3ccccc3)c(F)c2)ccn2c(CC(F)(F)F)cnc12` [Example 76], the EC50 was 269 nM.

Take `N#Cc1c(N2CCC([C@H]3CC[C@H](O)CC3)CC2)ccn2c(CC(F)(F)F)cnc12` [Example 122]: the EC50 was 550 nM.

Consider `Cc1cnc(N2CCN(c3ccn4c(CC(F)(F)F)cnc4c3C#N)CC2)nc1` [Example 56], for which the EC50 was 646 nM.

Regarding `Fc1ccc(Oc2ccc(-c3ccn4c(CC(F)(F)F)cnc4c3Cl)cc2)cc1` [Example 70], the EC50 is 269 nM.

In the case of `N#Cc1c(N2CCC(c3ccc(N4CCOCC4)cc3)CC2)ccn2c(CC(F)(F)F)cnc12` [Example 57], the EC50 is 479 nM.

As for `N#Cc1c(N2CCC(c3ccccc3)(N3CCOCC3)CC2)ccn2c(CC(F)(F)F)cnc12` [Example 121], the EC50 is 2090 nM.

In the case of `N#Cc1c(-c2ccc(OC3CCOCC3)c(Cl)c2)ccn2c(CC(F)(F)F)cnc12` [Example 90], the EC50 was 676 nM.

For the molecule `N#Cc1c(-c2ccc(N3CCC(O)CC3)cc2)ccn2c(CC(F)(F)F)cnc12` [Example 111], the EC50 was 1050 nM.

For the molecule `C[C@]1(O)CC[C@@H](Oc2ccc(-c3ccn4c(CC(F)(F)F)cnc4c3C#N)cc2Cl)CC1` [Example 104], the EC50 is 1050 nM.

Turning to `N#Cc1c(CN2CCC(c3ccccc3)CC2)ccn2c(CC(F)(F)F)cnc12` [Example 27], the EC50 is 295 nM.

In the case of `FC(F)(F)Cc1cnc2c(Cl)c(CN3CCC4(CC3)COc3ccccc3O4)ccn12` [Example 124], the EC50 is 794 nM.

Regarding `COc1cccc(F)c1C1CCN(c2ccn3c(CC(F)(F)F)cnc3c2C#N)CC1` [Example 69], the EC50 is 9.77 nM.

Take `N#Cc1c(N2CCC(c3ccccc3CCF)CC2)ccn2c(CC(F)(F)F)cnc12` [Example 118]: the EC50 was 63.1 nM.

For the molecule `C[C@]1(O)CC[C@H](Oc2ccc(-c3ccn4c(CC(F)(F)F)cnc4c3C#N)cc2Cl)CC1` [Example 97], the EC50 was 603 nM.

`N#Cc1c(-c2ccc(NC3CC3)c(F)c2)ccn2c(CC(F)(F)F)cnc12` [Example 106]: the EC50 is 6310 nM.

`N#Cc1c(N2CCC(c3ccccc3)CC2)ccn2c(C3CC3)cnc12` [Example 49]: the EC50 is 676 nM.

Turning to `FC(F)(F)Cc1cnc2c(Cl)c(-c3ccc(N4CCCCC4)cc3)ccn12` [Example 109], the EC50 was 275 nM.

The record behind these values is patent publication US8785486B2, “Imidazo[1,2-A]pyridine derivatives and their use as positive allosteric modulators of mGluR2 receptors” (Janssen Pharmaceuticals, Inc., priority 2007, dated 2014).
